In article PMC3942691, “The Dipeptide Monoester Prodrugs of Floxuridine and Gemcitabine—Feasibility of Orally Administrable Nucleoside Analogs” (Pharmaceuticals, 2014):
Read-outs that look alike come from different tables or passages of the source. Marks after values point to notes of the source that are not given here.

Legend:
[1] = test system: AsPC-1 cells; test: Cell proliferation assay (XTT) in AsPC-1 cells; type: cell-based; settings: 24 h recovery
Method: Cell proliferation studies were conducted with Panc-1 and AsPC-1 cells. The cells were seeded into 96-well plates at 80,000 cells per well and allowed to attach/grow for 48 h before drug solutions were added. The culture medium (DMEM +10% fetal bovine serum or RPMI-1640 +10% fetal bovine serum) was removed and the cells were gently washed once with sterile pH 6.0 uptake buffer. Floxuridine, 5′-L-phenylalanyl-L-tyrosyl-floxuridine, gemcitabine and 5′-L-phenylalanyl-L-tyrosyl-gemcitabine were 2-fold serially diluted in pH 6.0 uptake buffer from 5 to 0.078 mmol/L. Buffer alone was used as a 100% viability control. The wash buffer was removed and 30 µL drug solution per well was added and incubated at 37 °C for 2 h in the cell incubator. After this time, the drug solutions were removed and the cells were again gently washed twice with sterile uptake buffer. The culture medium was then added to each well after washing. The cells were allowed to recover for 24 h before evaluating cell viability via 2,3-bis[2-methoxy-4-nitro-5-sulfophenyl]-2H-tetrazolium-5-carboxanilide inner salt (XTT) assays. A mixture (30 µL) containing XTT (1 mg/mL) in sterile RPMI-1640 without phenol red and phenazine methosulfate (N-methyldibenzopyrazine methyl sulfate in sterile PBS, 0.383 mg/mL) reagents were added to the cells and incubated at 37 °C for 1 h, after which the absorbance at 450 nm was read. The concentrations required to inhibit cell growth by 50% (GI50) were calculated using GraphPad Prism version 3.0 by nonlinear data fitting.

[2] = test system: Panc-1 cell homogenates; test: Enzymatic stability in Panc-1 cell homogenates; type: in vitro ADME; settings: 500 µg/mL protein, 37 °C
Method: Confluent Caco-2, Panc-1, and AsPC-1cells were rinsed twice with phosphate buffered saline (PBS). The cells were lysed with phosphate buffer (pH 7.4) by ultrasonication (Micro ultrasonic cell disrupter Model KT40, Kontes, Vineland, NJ, USA), and pelleted by centrifugation for 5 min at 1,000 × g. Protein amount was quantified with the Bio-Rad (Hercules, CA, USA) DC Protein Assay using bovine serum albumin as a standard. The amount of protein was adjusted to 500 µg/mL and hydrolysis reactions were carried out in 96-well plates (Corning). Caco-2, Panc-1, and AsPC-1 cell suspensions (250 µL) were placed in triplicate wells, the reactions were started with the addition of substrate, and cells were incubated at 37 °C for 120 min. At the desired time point, sample aliquots (35 µL) were removed and added to acetonitrile (ACN, 150 µL) with 0.1% TFA. The mixtures were filtered with a 0.45 µm filters at 1,000 × g for 10 min at 4 °C. The filtrate was then analyzed via reverse-phase HPLC.
The stability samples of prodrugs and their metabolites, and perfusion samples were determined on an Agilent HPLC system (Agilent Technologies, Santa Clara, CA, USA). The HPLC system consisted of Agilent pumps (1100 series), an Agilent autosampler (1200 series), and an Agilent UV-Vis detector (1100 series) controlled by Chemstation® 32 software (version B.01.03). Samples were resolved in an Agilent Eclipse Plus C18 reverse-phase column (3.5 µm, 4.6 × 75 mm) equipped with a guard column. The mobile phase consisted of 0.1% TFA/water (Solvent A) and 0.1% TFA/acetonitrile (Solvent B) with the solvent B gradient changing from 0%–56% at a rate of […] during a 15 min run for gemcitabine and gemcitabine prodrugs. Standard curves generated for each prodrug and their parent drug were utilized for quantitation of integrated area under peaks. The detection wavelength was 254 nm and spectra were acquired in the 220–380 nm wavelength range. The detection wavelength for phenol red was 430 nm.
(§1) The experiments concerning drug and their prodrug stability were performed at 37 °C in 0.01 N HCl, SIF (pH 6.0), and pH 7.4 phosphate buffer. […] Prodrug metabolites such as floxuridine, 5-fluorouracil (5-FU), gemcitabine, 2′-deoxy-2′,2′-difluorouridine, uracil, and cytosine were monitored along with prodrug disappearance in this experiment.

[3] = test system: Caco-2 cell homogenates; test: Enzymatic stability in Caco-2 cell homogenates; type: in vitro ADME; settings: 500 µg/mL protein, 37 °C
Method: (§2) Confluent Caco-2, Panc-1, and AsPC-1cells were rinsed twice with phosphate buffered saline (PBS). The cells were lysed with phosphate buffer (pH 7.4) by ultrasonication (Micro ultrasonic cell disrupter Model KT40, Kontes, Vineland, NJ, USA), and pelleted by centrifugation for 5 min at 1,000 × g. Protein amount was quantified with the Bio-Rad (Hercules, CA, USA) DC Protein Assay using bovine serum albumin as a standard. The amount of protein was adjusted to 500 µg/mL and hydrolysis reactions were carried out in 96-well plates (Corning). […] The filtrate was then analyzed via reverse-phase HPLC.
(§3) The stability samples of prodrugs and their metabolites, and perfusion samples were determined on an Agilent HPLC system (Agilent Technologies, Santa Clara, CA, USA). […] Standard curves generated for each prodrug and their parent drug were utilized for quantitation of integrated area under peaks. […]
as §1

[4] = test system: AsPC-1 cell homogenates; test: Enzymatic stability in AsPC-1 cell homogenates; type: in vitro ADME; settings: 500 µg/mL protein, 37 °C
Method: as §2, §3, §1

[5] = test system: Caco-2, Panc-1, and AsPC-1 cell homogenates; test: Enzymatic stability compared across Caco-2, Panc-1 and AsPC-1 cell homogenates; type: in vitro ADME
Method: as §2
The experiments concerning drug and their prodrug stability were performed at 37 °C in 0.01 N HCl, SIF (pH 6.0), and pH 7.4 phosphate buffer. […] Prodrug metabolites such as floxuridine, 5-fluorouracil (5-FU), gemcitabine, 2′-deoxy-2′,2′-difluorouridine, uracil, and cytosine were monitored along with prodrug disappearance in this experiment. However, the mass balance could not be established because 5-FU, cytosine and uracil were metabolized even further and those metabolites could not be quantified by HPLC [11, 50]. The specific kinetic parameters in drug/prodrug metabolism could not be determined without the mass balance and the data of enzymatic activities and their expression levels because those metabolic activities were simultaneously taken place. […]

[6] = test system: AsPC-1 cell homogenates; settings: cited from earlier work
[7] = test system: Caco-2 cell homogenates; settings: cited from earlier work
[8] = test system: AsPC-1 cells; parameters: method as in PMID 18652477; settings: cited from earlier work
[9] = Enzymatic stability in Caco-2 cell homogenates; type: in vitro ADME; settings: human, Caco-2, pH 7.4; 500 µg/mL protein, 37 °C; read-out: Caco-2 cell homogenates t1/2
Method: as §2, §3, §1

[10] = Enzymatic stability in AsPC-1 cell homogenates; type: in vitro ADME; settings: human, AsPC-1 cell homogenates, pH 7.4; 500 µg/mL protein, 37 °C; read-out: AsPC-1 cell homogenates t1/2
Method: as §2, §3, §1

[11] = Homo sapiens, ASPC1, 2 h exposure

| Compound | degradation in AsPC-1 cells compared with Caco-2 and Panc-1 cells [5] | AsPC-1 cell homogenates t1/2 [6] | GI50 [1, 11] [mM] | Caco-2 cell homogenates t1/2 [7] | also measured |
| --- | --- | --- | --- | --- | --- |
| 2′,2′-difluoro-2′-deoxyuridine [Gemcitabine] | three- to four- times faster | – | – | – | GI50 ([1]; 2 h exposure): 10.2 ± 1.6 mM; Panc-1 cell homogenates t1/2 [2]: >120 min; Caco-2 cell homogenates t1/2 [3]: 105.0 ± 6.1 min; AsPC-1 cell homogenates t1/2 [4]: 33.7 ± 14.5 min |
| NC(Cc1ccccc1)C(=O)NC(Cc1ccc(O)cc1)C(=O)OCC1OC(n2cc(F)c(=O)[nH]c2=O)CC1O [5′-L-Phenylalanyl-L-tyrosyl-floxuridine] | – | 59.7 ± 1.4 ^b min | 4.2 ± 0.1 | 103.8 ± 55.5 ^b min | – |
| O=c1[nH]c(=O)n([C@H]2C[C@H](O)[C@@H](CO)O2)cc1F [Floxuridine, 5-fluoro-2′-deoxyuridine] | two- to six-times faster | 6.4 ± 3.2 ^a min | – | 14.3 ± 7.0 ^a min | GI50 [8]: 22.9 ± 5.7 mM |
| Nc1ccn(C2OC(COC(=O)C(Cc3ccc(O)cc3)NC(=O)C(N)Cc3ccccc3)C(O)C2(F)F)c(=O)n1 [5′-L-Phenylalanyl-L-tyrosyl-gemcitabine] | – | – | 5 ± 0.3 | – | half-life [9]: 14.7 ± 4.4 min; half-life [10]: 8.1 ± 0.6 min |
